Results as given in ChEMBL document CHEMBL3758161, “Synthesis and evaluation of antibacterial and antitumor activities of new galactopyranosylated amino alcohols” (Eur J Med Chem, 2016).
Converted amounts (≈) assume the structure as drawn.

Key:
[1] = Lipophilicity, log P of the compound; type: physicochemical; settings: octanol/water
[2] = test system: Mycobacterium tuberculosis; assay: microbe, parasite or virus in culture; settings: H37Rv
Description: Antibacterial activity against Mycobacterium tuberculosis H37Rv

[3] = test system: HeLa; assay: Cytotoxicity against human HeLa cells assessed as cell growth inhibition after 24 hrs by XTT assay; type: functional, cell-based
[4] = Cytotoxicity against human GM07492A cells assessed as cell growth inhibition after 24 hrs by XTT assay; type: cell-based
[5] = test system: MCF7; assay: Selectivity index, ratio of IC50 for human GM07492A cells to IC50 for human MCF7 cells; type: functional
[6] = test system: M059J; assay: Cytotoxicity against human M059J cells assessed as cell growth inhibition after 24 hrs by XTT assay; type: functional, cell-based
[7] = test system: MCF7; assay: cells; settings: Homo sapiens, MCF7, 24 h
Description: Cytotoxicity against human MCF7 cells assessed as cell growth inhibition after 24 hrs by XTT assay

[8] = test system: Staphylococcus epidermidis; assay: Antibacterial activity against gram-positive Staphylococcus epidermidis ATCC 12228 at 5 mg/ml incubated overnight by agar well diffusion method; type: functional; settings: read-out: DIZ
[9] = test system: Staphylococcus aureus; assay: Bactericidal activity against gram-positive Staphylococcus aureus ATCC 3591 after 24 hrs by broth dilution method; type: functional; settings: ATCC 3591, 24 h
[10] = test system: Pseudomonas aeruginosa; assay: Antibacterial activity against gram-negative Pseudomonas aeruginosa ATCC 2785 at 5 mg/ml incubated overnight by agar well diffusion method; type: functional; settings: read-out: DIZ
[11] = test system: Staphylococcus epidermidis; assay: Bactericidal activity against gram-positive Staphylococcus epidermidis ATCC 12228 after 24 hrs by broth dilution method; type: functional; settings: ATCC 12228, 24 h
[12] = test system: Pseudomonas aeruginosa; assay: Bactericidal activity against gram-negative Pseudomonas aeruginosa ATCC 2785 after 24 hrs by broth dilution method; type: functional; settings: ATCC 2785, 24 h
[13] = test system: Escherichia coli; assay: Bactericidal activity against gram-negative Escherichia coli ATCC 11229 after 24 hrs by broth dilution method; type: functional; settings: ATCC 11229, 24 h
[14] = test system: Staphylococcus aureus; assay: Antibacterial activity against gram-positive Staphylococcus aureus ATCC 3591 at 5 mg/ml incubated overnight by agar well diffusion method; type: functional; settings: read-out: DIZ
[15] = test system: Escherichia coli; assay: Antibacterial activity against gram-negative Escherichia coli ATCC 11229 at 5 mg/ml incubated overnight by agar well diffusion method; type: functional; settings: read-out: DIZ

Compound | logP [1] | MIC [2] | IC50 [3] | IC50 [4] | Ratio IC50 [5] | IC50 [6] | IC50 [7] | zone of inhibition at 5000 µg/mL [8] | MBC [9] | zone of inhibition at 5000 µg/mL [10] | MBC [11] | MBC [12] | MBC [13] | zone of inhibition at 5000 µg/mL [14] | zone of inhibition at 5000 µg/mL [15]
CCCCCCCCCCCCNCCN | 4.69 | 27 µM (≈ 6.17 µg/mL) |  |  |  |  |  |  |  |  |  |  |  |  | 
CCCCCCCCCCCCNCCO | 3.93 | 27 µM (≈ 6.19 µg/mL) |  |  |  |  |  |  |  |  |  |  |  |  | 
CCCCCCCCNCCO | 2.55 | 577 µM (≈ 100 µg/mL) |  |  |  |  |  |  |  |  |  |  |  |  | 
CCCCCCCCCCNCCO | 3.09 | 248 µM (≈ 49.9 µg/mL) |  |  |  |  |  |  |  |  |  |  |  |  | 
CCCCCCCCCCCCN(CCO)C[C@@H](O)COC[C@H]1O[C@@H]2OC(C)(C)O[C@@H]2[C@H]2OC(C)(C)O[C@H]21 | 4.22 | 29 µM (≈ 15.8 µg/mL) | 105 µM | 260 µM | 3.4 | 97.8 µM | 75.7 µM |  |  |  |  |  |  |  | 
CCCCCCCCC(O)CNCCO (stereo not drawn) | 2.14 | 460 µM (≈ 100 µg/mL) |  |  |  |  |  |  |  |  |  |  |  |  | 
CCCCCCCCCCCCC(O)CNCCO (stereo not drawn) | 4.69 | 46 µM (≈ 12.6 µg/mL) |  |  |  |  |  |  |  |  |  |  |  |  | 
CCCCCCCCCCNCCCN | 2.82 | 116 µM (≈ 24.9 µg/mL) |  |  |  |  |  |  |  |  |  |  |  |  | 
CCCCCCCCCCNCCN | 2.71 | 249 µM (≈ 49.9 µg/mL) |  |  |  |  |  |  |  |  |  |  |  |  | 
CCCCCCCCCCCCCCNCCN | 4.5 | 97 µM (≈ 24.9 µg/mL) |  |  |  |  |  |  |  |  |  |  |  |  | 
CCCCCCCCCCC(O)CNCCO (stereo not drawn) | 3.62 | 102 µM (≈ 25 µg/mL) |  |  |  |  |  |  |  |  |  |  |  |  | 
CCCCCCCCCCCCN(CCO)C[C@H](O)COC[C@H]1O[C@@H]2OC(C)(C)O[C@@H]2[C@H]2OC(C)(C)O[C@H]21 | 4.22 | 15 µM (≈ 8.19 µg/mL) | 162 µM | 162 µM | 0.8 |  | 182 µM |  |  |  |  |  |  |  | 
CCCCCCCCCCCCCCNCCCN | 4.88 | 46 µM (≈ 12.4 µg/mL) |  |  |  |  |  |  |  |  |  |  |  |  | 
CCCCCCCCCCCCNCCCN | 5.06 | 103 µM (≈ 25 µg/mL) |  |  |  |  |  |  |  |  |  |  |  |  | 
CCCCCCCCCCC(O)CN(CCO)CC(O)COC[C@H]1O[C@@H]2OC(C)(C)O[C@@H]2[C@H]2OC(C)(C)O[C@H]21 (mixture of isomers) | 3.37 | 175 µM |  |  |  |  |  | 11 mm | > 911 µM | 20 mm | 28 µM | > 911 µM | > 911 µM |  | 
CCCCCCCCCCCCCCN(CCO)CC(O)COC[C@H]1O[C@@H]2OC(C)(C)O[C@@H]2[C@H]2OC(C)(C)O[C@H]21 (mixture of isomers) | 5.06 | 22 µM | 87.7 µM | 83 µM | 2.7 | 12.8 µM | 30.8 µM | 30 mm | 111 µM |  | 3 µM | 892 µM | > 892 µM | 18 mm | 
CCCCCCCCN(CCO)CC(O)COC[C@H]1O[C@@H]2OC(C)(C)O[C@@H]2[C@H]2OC(C)(C)O[C@H]21 (mixture of isomers) | 2.55 | > 204 µM |  |  |  |  |  |  |  |  |  |  |  |  | 

Compound | logP [1] | MIC [2] | IC50 [3] | IC50 [4] | Ratio IC50 [5] | IC50 [6] | IC50 [7] | zone of inhibition at 5000 µg/mL [8] | MBC [9] | zone of inhibition at 5000 µg/mL [10] | MBC [11] | MBC [12] | MBC [13] | zone of inhibition at 5000 µg/mL [14] | zone of inhibition at 5000 µg/mL [15]
CCCCCCCCCCCCCCNCCNCC(O)COC[C@H]1O[C@@H]2OC(C)(C)O[C@@H]2[C@H]2OC(C)(C)O[C@H]21 (mixture of isomers) | 3.56 | 87 µM | 41.5 µM | 24.9 µM | 0.6 | 39.2 µM | 39.3 µM | 20 mm | 14 µM | 20 mm | 14 µM | > 894 µM | 445 µM | 22 mm | 10 mm
CCCCCCCCC(O)CN(CCO)CC(O)COC[C@H]1O[C@@H]2OC(C)(C)O[C@@H]2[C@H]2OC(C)(C)O[C@H]21 (mixture of isomers) | 2.43 | > 187 µM |  |  |  |  |  | 22 mm | 240 µM | 18 mm | 120 µM | > 959 µM | > 959 µM | 16 mm | 
CCCCCCCCCCNCCNCC(O)COC[C@H]1O[C@@H]2OC(C)(C)O[C@@H]2[C@H]2OC(C)(C)O[C@H]21 (mixture of isomers) | 3.15 | 24 µM | 40.2 µM | 63.3 µM | 2.3 | 39.2 µM | 28 µM | 20 mm | 8 µM |  | 8 µM | > 990 µM | > 990 µM | 20 mm | 16 mm
CCCCCCCCCCCCN(CCO)CC(O)COC[C@H]1O[C@@H]2OC(C)(C)O[C@@H]2[C@H]2OC(C)(C)O[C@H]21 (mixture of isomers) | 4.22 | 23 µM | 125 µM | 282 µM | 2.7 | 110 µM | 104 µM | 20 mm | > 938 µM | 20 mm | 4 µM | > 938 µM | > 938 µM |  | 
CCCCCCCCCCCCC(O)CN(CCO)CC(O)COC[C@H]1O[C@@H]2OC(C)(C)O[C@@H]2[C@H]2OC(C)(C)O[C@H]21 (mixture of isomers) |  |  |  |  |  |  |  | 18 mm | > 868 µM |  | 13 µM | > 868 µM | > 868 µM | 20 mm | 
CCCCCCCCCCCCNCCNCC(O)COC[C@H]1O[C@@H]2OC(C)(C)O[C@@H]2[C@H]2OC(C)(C)O[C@H]21 (mixture of isomers) | 3.99 | 91 µM |  | 7.3 µM | 0.6 | 10 µM | 11.9 µM | 20 mm | 15 µM | 20 mm | 15 µM | > 940 µM | 235 µM | 30 mm | 10 mm
CCCCCCCCCCN(CCO)CC(O)COC[C@H]1O[C@@H]2OC(C)(C)O[C@@H]2[C@H]2OC(C)(C)O[C@H]21 (mixture of isomers) | 3.39 | 96 µM |  |  |  |  |  | 20 mm | 123 µM |  | 61 µM | 988 µM | > 988 µM | 20 mm | 
CCCCCCCCCCCCNCCCNCC(O)COC[C@H]1O[C@@H]2OC(C)(C)O[C@@H]2[C@H]2OC(C)(C)O[C@H]21 (mixture of isomers) | 4.09 | 22 µM | 34.5 µM | 23.5 µM | 0.8 | 34.8 µM | 27.8 µM | 19 mm | > 916 µM |  | > 916 µM | > 916 µM | > 916 µM | 20 mm | 
CCCCCCCCCCNCCCNCC(O)COC[C@H]1O[C@@H]2OC(C)(C)O[C@@H]2[C@H]2OC(C)(C)O[C@H]21 (mixture of isomers) | 3.26 | 23 µM | 57 µM | 29.4 µM | 0.9 | 53.8 µM | 32.2 µM |  | 60 µM |  | 15 µM | > 965 µM | 241 µM | 12 mm | 28 mm
CCCCCCCCCCCCCCNCCCNCC(O)COC[C@H]1O[C@@H]2OC(C)(C)O[C@@H]2[C@H]2OC(C)(C)O[C@H]21 (mixture of isomers) | 4.12 | 42 µM | 147 µM | 80.3 µM | 0.4 | 195 µM | 194 µM |  |  |  |  |  |  |  | 
CC[C@@]1(O)C(=O)OCc2c1cc1n(c2=O)Cc2cc3ccccc3nc2-1 [CAMPTOTHECIN] |  |  | 19.8 µM | 3.2 µM | 0.5 | 5.5 µM | 6 µM |  |  |  |  |  |  |  | 
COc1cccc2c1C(=O)c1c(O)c3c(c(O)c1C2=O)C[C@@](O)(C(=O)CO)C[C@@H]3O[C@H]1C[C@H](N)[C@H](O)[C@H](C)O1 [DOXORUBICIN] |  |  | 21.9 µM | 0.5 µM |  | 6.9 µM |  |  |  |  |  |  |  |  | 
CC[C@@H](CO)NCCN[C@@H](CC)CO [ETHAMBUTOL] |  | 15 µM (≈ 3.06 µg/mL) |  |  |  |  |  |  |  |  |  |  |  |  | 
COc1cc([C@@H]2c3cc4c(cc3[C@@H](O[C@@H]3O[C@@H]5CO[C@@H](C)O[C@H]5[C@H](O)[C@H]3O)[C@H]3COC(=O)[C@H]23)OCO4)cc(OC)c1O [ETOPOSIDE] |  |  | 226 µM | 1.2 µM | 0 | 58.9 µM | 82.6 µM |  |  |  |  |  |  |  | 
CCCCCCCCCCCCCCNCCO [MYRALACT] | 4.76 | 49 µM (≈ 12.6 µg/mL) |  |  |  |  |  |  |  |  |  |  |  |  | 
NC(=O)N/N=C/c1ccc([N+](=O)[O-])o1 [NITROFURAZONE] |  |  |  |  |  |  |  | 25 mm |  | 15 mm |  |  |  | 31 mm | 35 mm
CO[C@H]1/C=C/O[C@@]2(C)Oc3c(C)c(O)c4c(O)c(c(/C=N/N5CCN(C)CC5)c(O)c4c3C2=O)NC(=O)/C(C)=C\C=C\[C@H](C)[C@H](O)[C@@H](C)[C@@H](O)[C@@H](C)[C@H](OC(C)=O)[C@@H]1C [RIFAMPIN] |  | 1 µM (≈ 0.823 µg/mL) |  |  |  |  |  |  |  |  |  |  |  |  | 
